# Like-named read-outs stand apart in the source and are kept apart here.
# How the values were obtained:
# [1] = water-solubilized hydrochloride form; cited from earlier work
# physchem = experiment: physchem
# Description: Approximately 0.17 gm of Epikuron 200, 0.7 gm essential oil of sweet basil, 0.25 gm of water, and 0.25 gm of glycerol were mixed and the mixture centrifuged.
# In this experiment, essential oils of ginger and sweet basil were combined to solubilize the bioactive compound ubiquinone (a coenzyme Q10) in a phospholipid-rich reversed liquid crystal.
# [2] = cited from earlier work
# [3] = oral, intramuscular and intraperitoneal routes; cited from earlier work
# [4] = free base form; cited from earlier work
# [5] = cited from earlier work; remark: listed apart in the source
# [6] = Solubilizing paclitaxel in essential oils
smiles,measurement,setting,value
CCCCN1CCCCC1C(=O)Nc1c(C)cccc1C.Cl (stereo not drawn) [bupivicaine hydrochloride],therapeutic half life,[1],only a few hours
"O=C1CN(/N=C/c2ccc(-c3ccc([N+](=O)[O-])cc3)o2)C(O)=N1 [Dantrolene sodium, dantrolene sodium]",solubilization in reversed cubic phase,physchem,free of dantrolene crystals
same,dissolution in reversed cubic liquid crystalline phase,physchem; Experiment 10: 3 mg in Epikuron 200/ascorbyl palmitate/gentisic acid/aminocaproic acid/ethanolamine/water + oil of ginger,dissolved
same,solubility in water,[2],~300 µg/mL
"C=CC(C)(O)CCC=C(C)C (stereo not drawn) [Linalool, linalool]",toxicity,[3],extremely low toxicity
"COC1=C(OC)C(=O)C(C/C=C(\C)CC/C=C(\C)CC/C=C(\C)CC/C=C(\C)CC/C=C(\C)CC/C=C(\C)CC/C=C(\C)CC/C=C(\C)CC/C=C(\C)CCC=C(C)C)=C(C)C1=O [Coenzyme Q10, ubiquinone]",solubilization in reversed bicontinuous cubic phase,physchem,solubilized
same,solubilization in reversed cubic phase,physchem,fully solubilized
CCCCN1CCCCC1C(=O)Nc1c(C)cccc1C (stereo not drawn) [bupivicaine],solubilization in liquid crystal (reversed cubic phase),physchem,solubilized
same,KOW (octanol-water partition coefficient),[4],approximately 1500
"O=C1CN(/N=C/c2ccc(-c3ccc([N+](=O)[O-])cc3)o2)C(O)=N1 [Dantrolene, dantrolene]",solubility in water,[2]; listed as dantrolene,approximately 150 mg/L
same,solubility in simple phospholipid-water systems,[5],very low
N.[Cl][Pt][Cl].c1cscn1 [trans-[Pt(II)Cl2(NH3)(thiazole)]],level solubilized in reversed cubic phase,physchem,about 2.4%
"CC(=O)O[C@H]1C(=O)[C@@]2(C)[C@H]([C@H](OC(=O)c3ccccc3)[C@]3(O)C[C@H](OC(=O)[C@H](O)[C@@H](NC(=O)c4ccccc4)c4ccccc4)C(C)=C1C3(C)C)[C@]1(OC(C)=O)CO[C@@H]1C[C@@H]2O [Paclitaxel, paclitaxel]",solubility,physchem; oil or lipid,≥ 5000 µg/mL
same,"Paclitaxel solubility (w/w, approx)",[6]; in oil of bay,~16%
same,"Paclitaxel solubility (w/w, approx)",[6]; in palmarosa oil,>10%
same,"Paclitaxel solubility (w/w, approx)",[6]; in peppermint oil,>5%
same,"Paclitaxel solubility (w/w, approx)",[6]; in sweet basil oil,~7%
same,"Paclitaxel solubility (w/w, approx)",[6]; in thyme oil,~10%
